{"source": "paper PMC6117412", "about": "“Comprehensive Study of the Enzymatic Catalysis of the Electrochemical Oxygen Reduction Reaction (ORR) by Immobilized Copper Efflux Oxidase (CueO) From Escherichia coli” (Frontiers in Chemistry, 2018)", "biological_target": "T1, CueO (copper efflux oxidase) (Escherichia coli, UniProt P36649)", "T1 sequence (P36649 29-516)": "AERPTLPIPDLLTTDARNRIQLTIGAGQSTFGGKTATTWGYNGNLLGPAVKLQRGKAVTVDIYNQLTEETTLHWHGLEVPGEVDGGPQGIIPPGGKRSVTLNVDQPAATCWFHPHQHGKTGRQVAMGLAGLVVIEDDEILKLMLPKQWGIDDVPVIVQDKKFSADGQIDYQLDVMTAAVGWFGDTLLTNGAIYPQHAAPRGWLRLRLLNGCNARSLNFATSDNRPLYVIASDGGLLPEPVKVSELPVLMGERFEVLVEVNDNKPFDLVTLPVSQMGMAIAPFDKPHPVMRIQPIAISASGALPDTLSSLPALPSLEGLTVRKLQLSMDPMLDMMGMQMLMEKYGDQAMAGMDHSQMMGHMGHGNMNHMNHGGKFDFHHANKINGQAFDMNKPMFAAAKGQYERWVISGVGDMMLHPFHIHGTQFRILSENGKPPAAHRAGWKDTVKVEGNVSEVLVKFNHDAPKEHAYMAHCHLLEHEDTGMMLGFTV", "conditions": "immobilised on cysteamine-modified polycrystalline Au; O2-saturated phosphate buffer; 100-200 mM fluoride; direct electron transfer"}
{"compound": "F", "note": "[F−, sodium fluoride]", "values": [{"measurement": "cyclic voltammetry and chronoamperometry of electrocatalytic O2 reduction", "result": "the current density decreases significantly after the addition of fluoride"}]}
